SMILES strings stand for the structures.

For twelve compounds, IC50 results are on record in BindingDB's records for doi:10.1021/acs.jmedchem.8b00864 (2018).

The target of assay [1] is 2-acylglycerol O-acyltransferase 2 (MOGAT2, Homo sapiens) (UniProt Q3SYC2). In words: Inhibition of recombinant human MGAT2.
Assay [2] has the same target. Kind of assay: Inhibition of recombinant human MGAT2 using 2-monooleoyl glycerol/[1-14C]-oleoyl CoA as substrate after 30 mins by liquid scintillation counting method.
Assay [3] has the same target. Kind of assay: Inhibition of recombinant human MGAT2 expressed in sf9 cells using 2-monooleoyl glycerol/[14C]-oleoyl CoA as substrate by microscintillation counting method.

Chain of 2-acylglycerol O-acyltransferase 2 (MOGAT2, Homo sapiens) (Q3SYC2 whole entry, looked up): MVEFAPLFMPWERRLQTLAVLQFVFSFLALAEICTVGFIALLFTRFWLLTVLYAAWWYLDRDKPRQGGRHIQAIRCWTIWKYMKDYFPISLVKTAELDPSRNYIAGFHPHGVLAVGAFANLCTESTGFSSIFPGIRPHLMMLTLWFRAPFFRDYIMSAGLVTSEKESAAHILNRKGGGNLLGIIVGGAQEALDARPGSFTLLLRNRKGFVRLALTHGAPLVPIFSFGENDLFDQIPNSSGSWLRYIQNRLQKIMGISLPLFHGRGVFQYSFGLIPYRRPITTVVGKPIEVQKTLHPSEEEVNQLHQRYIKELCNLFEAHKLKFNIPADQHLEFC

For `CC(C)(C)c1cc(C(C)(C)C)nc(N2CCn3c(nnc3-c3ccc(OC(F)(F)F)cc3)C2)n1`, the half-maximal inhibitory concentration (IC50) – broadly, the point on the concentration scale where inhibition reaches its midpoint – in assay [1] amounted to 19 nM.

Consider `CCc1ccc(-c2cc(-c3ccc(OCCCCCC(F)(F)F)cc3C(F)(F)F)[nH]c(=O)c2-c2nn[nH]n2)s1`, for which, in assay [1], the IC50 is 0.3 nM.

Consider `Cc1ccc(C2=C(C(=O)Nc3ccc(-c4nnn[nH]4)cc3)C(=O)N[C@@](c3ccc(OCCCC(F)(F)F)cc3F)(C(F)(F)F)C2)cc1`, for which the IC50 in assay [1] turned out to be 7 nM.

As for `O=C(CCNCC1COc2ccccc2O1)N1CCc2nc(SC3CCC3)n(-c3ccccc3)c(=O)c2C1` (configuration not stated), the IC50 in assay [1] turned out to be 1.1 nM.

For the compound `O=C(CNCCCCCOc1ccc(C(F)(F)F)cc1)N1CCc2nc(SC3CCC3)n(-c3ccccc3)c(=O)c2C1`, the IC50 in assay [1] was found to be 0.64 nM.

Regarding `O=C1N[C@@]2(CCc3cc(OCCCC(F)(F)F)ccc32)CC(c2cnc(C3CC3)s2)=C1c1noc(=O)[nH]1`, in assay [1], the IC50 was under 1 nM.

With `O=C(CCNC1Cc2ccccc2C1)N1CCc2nc(SC3CCC3)n(-c3ccccc3)c(=O)c2C1`, the IC50 in assay [2] amounted to 0.38 nM.

On to `O=c1c2c(nc(SCc3cccnc3)n1-c1ccccc1)CCN(c1nc3cc(C(F)(F)F)ccc3[nH]1)C2`, for which the IC50 in assay [1] worked out at 56 nM.

On to `CC(C)(C)C1CCN(Cc2ccc([C@H](NS(C)(=O)=O)C(F)(F)F)cc2)CC1`, for which the IC50 in assay [3] was 58 nM.

Regarding `O=C1N[C@@](c2ccc(OCCCC(F)(F)F)cc2F)(C(F)(F)F)CC(c2ncc(C3CC3)s2)=C1n1nn[nH]c1=O`, the IC50 in assay [1] was 2 nM.

Regarding `CCOC(=O)CCc1ccc(CN2CC(C(=O)N3CCc4nc(SC5CCCCC5)n(-c5ccccc5)c(=O)c4C3)C2)cc1`, in assay [1], the half-inhibitory concentration (IC50) worked out at 4 nM.

With `CS(=O)(=O)N[C@@H](c1ccc(CNC[C@H]2COc3cccnc3O2)cc1)C(F)(F)F`, the IC50 in assay [3] was 3.8 nM.
